Four compounds from ChEMBL document CHEMBL4334516, “Kinase Chemodiversity from the Arctic: The Breitfussins” (J Med Chem, 2019) can be followed below.

Where only a bound is given, the exact number is not on record here.

The subject of one data set is MCF7. In words: Cytotoxicity in human MCF7 cells assessed as reduction in cell viability incubated for 72 hrs by MTS assay. It counts as functional, cell-based. The note with it: MCF7, 72 h. A general note: Tetrazolium dyes change colour on reduction, which living cells bring about.
A further data set has as its system MDA-MB-468. In words: Cytotoxicity in human MDA-MB-468 cells assessed as reduction in cell viability incubated for 72 hrs by MTS assay. The note with it: MDA-MB-468, 72 h. In kind it is functional, cell-based.
The next data set concerns SK-BR-3. The data set is described as follows: Cytotoxicity in human SK-BR-3 cells assessed as reduction in cell viability incubated for 72 hrs by MTS assay. It counts as functional, cell-based. The note with it: SK-BR-3, 72 h.
For the next data set, the system named is HT-29. In words: Cytotoxicity in human HT-29 cells assessed as reduction in cell viability incubated for 72 hrs by MTS assay. The note with it: HT-29, 72 h. It counts as functional, cell-based.
Data set [1] addresses T1, Serine/threonine-protein kinase pim-3 (Homo sapiens, UniProt Q86V86). In words: Inhibition of PIM3 (unknown origin) by [33P]-ATP filter binding kinase assay.
The target of data set [2] is T2, Mitogen-activated protein kinase kinase kinase 7 (Homo sapiens, UniProt O43318).
T2 sequence (O43318 whole entry): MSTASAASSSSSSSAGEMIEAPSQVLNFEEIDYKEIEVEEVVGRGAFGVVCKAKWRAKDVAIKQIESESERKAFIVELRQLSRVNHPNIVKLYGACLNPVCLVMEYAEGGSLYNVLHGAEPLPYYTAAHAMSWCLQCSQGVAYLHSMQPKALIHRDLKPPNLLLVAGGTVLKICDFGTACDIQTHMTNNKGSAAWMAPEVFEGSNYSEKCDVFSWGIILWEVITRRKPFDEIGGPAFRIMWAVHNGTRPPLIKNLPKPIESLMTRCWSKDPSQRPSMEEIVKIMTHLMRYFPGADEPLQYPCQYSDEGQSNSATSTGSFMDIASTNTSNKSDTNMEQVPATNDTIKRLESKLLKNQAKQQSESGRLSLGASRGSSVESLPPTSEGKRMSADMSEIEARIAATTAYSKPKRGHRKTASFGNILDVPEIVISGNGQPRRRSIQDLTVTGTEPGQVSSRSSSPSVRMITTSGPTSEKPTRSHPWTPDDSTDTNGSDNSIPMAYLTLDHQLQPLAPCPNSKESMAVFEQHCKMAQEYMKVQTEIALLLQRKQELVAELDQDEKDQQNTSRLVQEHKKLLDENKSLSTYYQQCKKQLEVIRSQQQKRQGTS
The data set is described as follows: Inhibition of TAK1 (unknown origin) by [33P]-ATP filter binding kinase assay.

Data set [3] concerns the target Mitogen-activated protein kinase kinase kinase 9 (Homo sapiens, UniProt P80192). The data set is described as follows: Inhibition of MLK1 (unknown origin) by [33P]-ATP filter binding kinase assay.
In data set [4] the target is Mitogen-activated protein kinase kinase kinase 11 (Homo sapiens, UniProt Q16584). The data set is described as follows: Inhibition of MLK3 (unknown origin) by [33P]-ATP filter binding kinase assay.
The next data set concerns the target Aurora kinase B (Homo sapiens, UniProt Q96GD4). In words: Inhibition of Aurora B (unknown origin) by [33P]-ATP filter binding kinase assay.
The target in data set [5] is T1, Serine/threonine-protein kinase pim-3. In words: Inhibition of PIM3 (unknown origin) assessed as residual enzyme activity at 1 uM by [33P]-ATP filter binding kinase assay relative to control.
Data set [6] addresses T3, Serine/threonine-protein kinase 17B (Homo sapiens, UniProt O94768).
T3 sequence (O94768 whole entry): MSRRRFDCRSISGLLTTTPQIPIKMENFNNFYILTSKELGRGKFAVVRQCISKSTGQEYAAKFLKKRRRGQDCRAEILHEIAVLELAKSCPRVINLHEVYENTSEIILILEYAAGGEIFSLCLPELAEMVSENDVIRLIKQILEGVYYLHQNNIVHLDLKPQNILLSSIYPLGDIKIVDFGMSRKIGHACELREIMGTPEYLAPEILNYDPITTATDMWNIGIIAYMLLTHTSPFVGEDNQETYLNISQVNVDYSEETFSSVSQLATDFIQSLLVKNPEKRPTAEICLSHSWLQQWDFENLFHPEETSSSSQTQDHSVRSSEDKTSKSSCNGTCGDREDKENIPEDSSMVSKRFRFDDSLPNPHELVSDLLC
The data set is described as follows: Inhibition of Alexa Fluor 647-labeled ATP competitive kinase tracer binding to GST-tagged DRAK2 (unknown origin) by FRET based cell free ATP-competitive tracer displacement assay.

Data set [7] deals with T4, Serine/threonine-protein kinase 17A (Homo sapiens, UniProt Q9UEE5).
T4 sequence (Q9UEE5 whole entry): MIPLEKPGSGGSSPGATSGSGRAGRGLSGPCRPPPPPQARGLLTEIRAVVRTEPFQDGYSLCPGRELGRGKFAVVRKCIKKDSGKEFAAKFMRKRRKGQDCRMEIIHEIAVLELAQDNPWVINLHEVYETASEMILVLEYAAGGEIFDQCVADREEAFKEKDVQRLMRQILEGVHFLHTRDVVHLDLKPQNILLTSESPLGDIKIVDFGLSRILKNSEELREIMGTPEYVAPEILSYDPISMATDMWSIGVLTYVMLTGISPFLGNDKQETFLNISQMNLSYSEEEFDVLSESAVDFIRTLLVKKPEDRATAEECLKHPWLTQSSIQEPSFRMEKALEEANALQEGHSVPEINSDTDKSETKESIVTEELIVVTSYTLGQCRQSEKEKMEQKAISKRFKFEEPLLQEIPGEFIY
In words: Inhibition of DRAK1 (unknown origin) expressed in HEK293 cells by NanoLuc-luciferase reporter based intracellular ATP competitiveness assay. It counts as cell-based. A general note: Reporter assays use an easily measured gene product as a stand-in for the process of interest.

The target in data set [8] is T3, Serine/threonine-protein kinase 17B. The data set is described as follows: Inhibition of DRAK2 (unknown origin) expressed in HEK293 cells by NanoLuc-luciferase reporter based intracellular ATP competitiveness assay. In kind it is cell-based.
Another data set has as its system MDA-MB-436. The data set is described as follows: Cytotoxicity in human MDA-MB-436 cells assessed as reduction in cell viability incubated for 72 hrs by SRB assay. The note with it: MDA-MB-436, 72 h. (The SRB assay estimates cell density from bound dye.)
In data set [9] the target is cGMP-specific 3',5'-cyclic phosphodiesterase (Homo sapiens, UniProt O76074). The data set is described as follows: Inhibition of human recombinant phosphodiesterase type 5 using [3H]cGMP and cGMP incubated for 60 mins by scintillation counting method. The note with it: 1 h.
Data set [10] concerns the target Sodium-dependent noradrenaline transporter (Homo sapiens, UniProt P23975). The data set is described as follows: Inhibition of [3H]nisoxetine binding to human recombinant NET incubated for 120 mins by scintillation counting method. The note with it: 2 h.
Data set [11] in a line: Toxicity in zebrafish embryos assessed as survival at 1396 uM after 72 hrs (reference value: 95%). Details: species or system Danio rerio; call rule not given here. The note with it: in vivo.
The nature of data set [12]: Toxicity in zebrafish embryos assessed as survival at 14 uM after 72 hrs (reference value: 95%). The arrangement: species or system Danio rerio. The note with it: in vivo.
Data set [13] is described as follows: Toxicity in zebrafish embryos assessed as induction of general edema by measuring unaffected embryos level at 14 uM after 72 hrs (reference value: 100%). Details: species or system Danio rerio. The following applies: in vivo.
Data set [14] can be described thus: Toxicity in zebrafish embryos assessed as survival at 1.4 uM after 72 hrs (reference value: 95%). The arrangement: species or system Danio rerio. The following applies: in vivo.
Data set [15] in a line: Toxicity in zebrafish embryos assessed as induction of tail degeneration by measuring unaffected embryos level at 1.4 uM after 72 hrs (reference value: 100%). The note with it: in vivo. It counts as tissue-based, Danio rerio.
Data set [16] in a line: Intrinsic clearance in human liver microsomes at 3 uM measured up to 50 mins by LC-MS analysis. The note with it: read-out: CLH. It counts as ADME, Microsome.
The next data set has as its system Hs-578T. The data set is described as follows: cells. The following applies: Homo sapiens, 72 h.

Chain of Mitogen-activated protein kinase kinase kinase 9 (P80192 whole entry): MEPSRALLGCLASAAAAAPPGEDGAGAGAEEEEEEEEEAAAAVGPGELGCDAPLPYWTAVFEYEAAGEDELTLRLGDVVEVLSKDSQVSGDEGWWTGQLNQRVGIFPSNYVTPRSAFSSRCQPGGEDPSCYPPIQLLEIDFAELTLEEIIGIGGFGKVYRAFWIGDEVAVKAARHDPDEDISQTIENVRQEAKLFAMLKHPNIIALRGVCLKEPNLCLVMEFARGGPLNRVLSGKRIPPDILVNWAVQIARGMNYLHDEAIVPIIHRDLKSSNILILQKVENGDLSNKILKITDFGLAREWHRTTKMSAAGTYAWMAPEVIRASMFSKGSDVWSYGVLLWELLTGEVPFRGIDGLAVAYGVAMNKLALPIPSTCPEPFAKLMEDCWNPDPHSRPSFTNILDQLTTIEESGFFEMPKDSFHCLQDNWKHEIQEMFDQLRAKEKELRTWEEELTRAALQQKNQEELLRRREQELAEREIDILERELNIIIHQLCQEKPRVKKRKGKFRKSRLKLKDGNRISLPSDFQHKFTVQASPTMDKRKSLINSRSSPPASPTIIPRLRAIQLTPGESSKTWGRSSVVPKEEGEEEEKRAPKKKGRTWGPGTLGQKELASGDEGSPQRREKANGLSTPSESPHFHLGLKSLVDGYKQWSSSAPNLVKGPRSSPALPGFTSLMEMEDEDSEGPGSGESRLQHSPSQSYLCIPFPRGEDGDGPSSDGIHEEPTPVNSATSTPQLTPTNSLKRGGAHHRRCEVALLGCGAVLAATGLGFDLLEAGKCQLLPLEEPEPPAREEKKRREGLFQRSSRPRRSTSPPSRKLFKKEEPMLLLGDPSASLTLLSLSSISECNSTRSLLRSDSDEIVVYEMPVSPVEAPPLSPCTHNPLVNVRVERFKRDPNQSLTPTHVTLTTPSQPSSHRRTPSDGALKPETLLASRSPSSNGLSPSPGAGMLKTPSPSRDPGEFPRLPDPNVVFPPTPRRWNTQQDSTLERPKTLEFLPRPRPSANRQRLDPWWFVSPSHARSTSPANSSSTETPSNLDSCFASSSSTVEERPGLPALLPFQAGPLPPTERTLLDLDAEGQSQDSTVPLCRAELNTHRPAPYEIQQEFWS
Chain of Mitogen-activated protein kinase kinase kinase 11 (Q16584 whole entry): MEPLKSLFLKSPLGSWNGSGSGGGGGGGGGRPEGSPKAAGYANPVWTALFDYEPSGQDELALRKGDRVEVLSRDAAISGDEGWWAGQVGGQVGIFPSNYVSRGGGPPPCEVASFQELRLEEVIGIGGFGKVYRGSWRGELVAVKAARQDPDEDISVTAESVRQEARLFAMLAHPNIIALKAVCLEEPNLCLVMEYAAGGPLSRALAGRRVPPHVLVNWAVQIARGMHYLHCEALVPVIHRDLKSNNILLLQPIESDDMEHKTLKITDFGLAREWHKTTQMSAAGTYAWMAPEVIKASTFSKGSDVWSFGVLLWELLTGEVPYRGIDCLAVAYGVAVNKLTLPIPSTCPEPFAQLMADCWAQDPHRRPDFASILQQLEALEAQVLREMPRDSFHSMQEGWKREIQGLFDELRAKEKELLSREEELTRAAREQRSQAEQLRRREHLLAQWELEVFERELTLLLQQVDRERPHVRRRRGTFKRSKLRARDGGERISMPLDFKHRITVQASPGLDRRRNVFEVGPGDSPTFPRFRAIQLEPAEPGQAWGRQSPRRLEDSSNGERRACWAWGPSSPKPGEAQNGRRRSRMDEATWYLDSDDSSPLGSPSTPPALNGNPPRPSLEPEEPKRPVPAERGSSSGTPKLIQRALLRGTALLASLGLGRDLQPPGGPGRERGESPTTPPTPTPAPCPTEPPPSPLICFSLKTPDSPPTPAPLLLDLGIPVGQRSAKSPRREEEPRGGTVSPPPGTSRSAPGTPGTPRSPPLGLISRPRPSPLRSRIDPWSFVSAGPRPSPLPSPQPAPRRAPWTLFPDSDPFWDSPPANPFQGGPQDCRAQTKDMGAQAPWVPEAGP
Chain of Aurora kinase B (Q96GD4 whole entry): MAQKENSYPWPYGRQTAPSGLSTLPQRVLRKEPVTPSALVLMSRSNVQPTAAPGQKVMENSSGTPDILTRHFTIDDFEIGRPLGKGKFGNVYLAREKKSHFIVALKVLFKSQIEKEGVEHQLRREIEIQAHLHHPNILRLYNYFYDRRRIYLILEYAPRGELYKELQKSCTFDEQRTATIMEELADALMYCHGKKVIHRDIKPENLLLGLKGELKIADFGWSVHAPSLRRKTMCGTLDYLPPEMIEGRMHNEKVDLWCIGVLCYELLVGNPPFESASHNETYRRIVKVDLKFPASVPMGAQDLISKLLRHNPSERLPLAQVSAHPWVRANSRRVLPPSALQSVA
Chain of Sodium-dependent noradrenaline transporter (P23975 whole entry): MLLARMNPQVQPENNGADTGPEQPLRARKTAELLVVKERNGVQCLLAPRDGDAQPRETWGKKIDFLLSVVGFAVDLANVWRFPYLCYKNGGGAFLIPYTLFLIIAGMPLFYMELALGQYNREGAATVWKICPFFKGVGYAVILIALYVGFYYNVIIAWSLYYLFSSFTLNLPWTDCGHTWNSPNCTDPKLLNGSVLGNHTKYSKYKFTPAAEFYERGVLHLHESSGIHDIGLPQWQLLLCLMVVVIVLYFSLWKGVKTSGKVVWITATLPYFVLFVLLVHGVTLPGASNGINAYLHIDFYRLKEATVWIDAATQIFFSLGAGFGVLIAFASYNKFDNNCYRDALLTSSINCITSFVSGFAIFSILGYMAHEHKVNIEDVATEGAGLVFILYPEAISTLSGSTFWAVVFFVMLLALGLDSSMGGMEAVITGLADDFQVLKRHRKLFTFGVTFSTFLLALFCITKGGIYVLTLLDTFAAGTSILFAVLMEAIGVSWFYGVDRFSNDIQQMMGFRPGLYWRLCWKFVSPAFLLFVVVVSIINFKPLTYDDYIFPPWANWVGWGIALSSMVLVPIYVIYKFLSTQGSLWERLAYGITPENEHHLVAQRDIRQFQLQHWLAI
Description for Hs-578T: Cytotoxicity in human Hs 578T cells assessed as reduction in cell viability incubated for 72 hrs by SRB assay

Regarding `COc1cc(Br)cc2[nH]cc(-c3cnc(-c4ccc[nH]4)o3)c12`, the IC50 is 3.9 µM with MCF7; over 10 µM in the data set with MDA-MB-468; over 10 µM with SK-BR-3; over 10 µM with HT-29; 3.7 µM in data set [1]; 1 µM in data set [2]. Moreover, the IC50 in data set [3] was 0.9 µM; in data set [4], 0.5 µM; at Aurora kinase B, 0.9 µM; in [6], over 10 µM; in [7], over 10 µM; in data set [8], 8.3 µM. In data set [5], the Activity was determined as 29%.
Regarding `COc1cc(Br)cc2[nH]cc(-c3oc(-c4ccc[nH]4)nc3I)c12`, the IC50 (with MCF7; in the data set on MDA-MB-468; in the data set on SK-BR-3; with HT-29; in [1]; in [2]) was over 10 µM throughout. The IC50 (in data set [3]; in data set [4]; on Aurora kinase B; in [6]; in data set [7]; in data set [8]) was over 10 µM each time.
Take `COc1cc(Br)cc2[nH]cc(-c3cnc(-c4ccc(Br)[nH]4)o3)c12`: the IC50 (in the data set on MCF7; with MDA-MB-468; in the data set with SK-BR-3; in the data set on HT-29; in data set [1]; in [2]) was over 10 µM throughout. Moreover, the IC50 in [3] is over 10 µM; in [4] it was over 10 µM; on Aurora kinase B, over 10 µM; in [6], over 10 µM; in data set [7], over 10 µM; in [8], 3.3 µM.
For `COc1cc2c(-c3cnc(-c4ccc[nH]4)o3)c[nH]c2cc1Br`, the IC50 was 8.5 µM with MCF7; over 10 µM in the data set on MDA-MB-468; over 10 µM in the data set with SK-BR-3; 7.1 µM in the data set with HT-29; 1.8 µM in [1]; 1.2 µM in [2]. Besides, the IC50 in data set [3] is 0.6 µM; in data set [4], 0.6 µM; on Aurora kinase B, 0.8 µM; in the data set with MDA-MB-436, over 30 µM; in data set [6], 9.8 µM; in [8] it was 0.5 µM. In addition, it took 5.22 µM to reach half-maximal inhibition in the data set on Hs-578T (IC50). The results for the Activity in [5], in data set [13] and in [15] were 7%, 100% and 100%, respectively. Further, the “inhibition (INH)” value in data set [9] and in [10] was “Active” each time. The survival at 72 h, 1396 µM in [11] is 0%. In addition, the survival at 72 h, 14 µM in data set [12] was 5%. Also, the survival at 72 h, 1.4 µM in data set [14] came out at 45%. Besides, the microsomal CLint at 3 µM in data set [16] turned out to be 14 µL/min/mg.

As a reminder, the IC50 is the midpoint of a concentration-inhibition curve.
